Measurements: US20100119506A1, “Effectors of PAR-2 Activation and Their Use in the Modulation of Inflammation” (BOEHRINGER INGELHEIM INTERNATIONAL GMBH, priority 2008, published 2010)

System: trans vivo delayed type hypersensitivity (DTH)
Experiment: Trans vivo DTH model (footpad swelling)
Assay type: in vivo, mouse
Details: 10 mg/kg; 24 hours after PBMCs and TT
Experimental: FIGS. 8A and 8B show the ability of anti-PAR-2 antibodies Par-B (FIG. 8A) and Par-D (FIG. 8B) to inhibit trans vivo DTH. Shown are the changes in paw thickness after injection of human peripheral blood mononuclear cells alone (PBMC) or after injection of PBMCs and […] (TT). Mice were pretreated (ip at −3 hours) with PBS, hu IgG4 (20 mg/kg), or anti-PAR-2 antibody. Percent inhibition is shown at top of the bars. *p<0.05 as compared to PBS.
The trans vivo delayed type hypersensitivity (DTH) is a validated model of human T cell mediated inflammation in mice (Warnecke, G. et al. (2007) Transplantation 84(3):392-399; Pelletier, R. P. et al. (Mar. 28, 2007, Epub) Hum. Immunol. 68(6):514-522; Carrodeguas, L. et al. (1999) Hum. Immunol. 60(8):640-651). In this assay, human PBMCs from tetanus-sensitized donors are isolated and co-injected with tetanus toxoid (TT) into the mouse footpad. The swelling response that develops in the footpad is measured at 24 hours. This swelling response is dependent on antigen-specific activation of the human T cells as well as on the inflammation mediated by mouse cells.
Shown in FIG. 8A and FIG. 8B, are the changes in footpad thickness 24 hours after injection of PBMCs and TT.

C[C@@H]1C[C@H]2[C@@H]3CCC4=CC(=O)C=C[C@]4(C)[C@@]3(F)[C@@H](O)C[C@]2(C)[C@@]1(O)C(=O)CO [dexamethasone, reference compound]
inhibition of footpad swelling response: approximately 80%
